PubChem BioAssay (NCI)
Several values for one entry are separate records, joined by “and”; a condition that tells them apart may be missing. Equal values may be shown once.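 These data come from cells grown in 96-well plates and exposed to compound for 48 hours at five concentrations. Abbreviation: GI50, concentration required for 50% inhibition of growth. TGI is the concentration that stops growth completely.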

Assays:
Assay in all cases: NCI tumour cell line growth inhibition, 48 h
786-0 renal = tested on: 786-0 renal
BT-549 breast = tested on: BT-549 breast
CCRF-CEM leukemia = tested on: CCRF-CEM leukemia
DU-145 prostate = tested on: DU-145 prostate
M14 melanoma = tested on: M14 melanoma
RXF 393 renal = tested on: RXF 393 renal
SF-295 CNS = tested on: SF-295 CNS
SNB-75 CNS = tested on: SNB-75 CNS
SW-620 colon = tested on: SW-620 colon
UACC-257 melanoma = tested on: UACC-257 melanoma

SMILES	GI50 (786-0 renal)	TGI (786-0 renal)	GI50 (BT-549 breast)	TGI (BT-549 breast)	GI50 (CCRF-CEM leukemia)	TGI (CCRF-CEM leukemia)	GI50 (DU-145 prostate)	TGI (DU-145 prostate)	GI50 (M14 melanoma)	TGI (M14 melanoma)	GI50 (RXF 393 renal)	TGI (RXF 393 renal)	GI50 (SF-295 CNS)	TGI (SF-295 CNS)	GI50 (SNB-75 CNS)	TGI (SNB-75 CNS)	GI50 (SW-620 colon)	TGI (SW-620 colon)	GI50 (UACC-257 melanoma)	TGI (UACC-257 melanoma)
CC[C@@H]1C(=O)N(C)c2cnc(Nc3ccc(C(=O)NC4CCN(C)CC4)cc3OC)nc2N1C1CCCC1	0.025 µM and 0.0451 µM	1.62 µM and 3.98 µM	0.0948 µM and 0.0414 µM	> 10 µM and 12.2 µM	0.00236 µM and < 0.01 µM	2.9 µM and 1.26 µM	0.00363 µM	> 10 µM	0.00384 µM and < 0.01 µM	> 4.22 µM and 2.37 µM	0.0047 µM and < 0.01 µM	0.627 µM and 0.576 µM	0.0147 µM and 0.0189 µM	> 10 µM and 15 µM	0.00411 µM and < 0.0112 µM	0.233 µM and 0.17 µM	0.00299 µM and < 0.01 µM	> 10 µM and 3.1 µM	0.903 µM and 0.103 µM	> 5.26 µM and 1.98 µM
CC[C@@H]1CN(C)[C@H]2Cc3c([nH]c4ccccc34)C(=O)C[C@H]1C2C(=O)OC (some centres not stated)	–	> 100 µM	–	> 100 µM	–	> 100 µM	–	> 100 µM	–	> 100 µM	–	> 100 µM	–	> 100 µM	–	> 100 µM	–	> 100 µM	–	> 100 µM
FC(F)(F)c1cccc(Nc2nccc(-c3cnn4nc(-c5ccccc5)ccc34)n2)c1	5.22 µM	11.2 µM	18.8 µM	> 25 µM	> 17.9 µM	> 25 µM	7.1 µM	> 17.4 µM	12 µM	24.5 µM	4.63 µM	10 µM	> 16.6 µM	> 25 µM	3.91 µM	9.6 µM	8.65 µM	> 21.4 µM	15.8 µM	> 25 µM
C=CC(=O)N1CC2(CCN(c3nc(OC4CCN(CCCOC)CC4)nc4c(OCC(F)(F)F)c(-c5c(C)ccc6[nH]ncc56)c(C5CC5)cc34)CC2)C1	4.4 µM	18.2 µM	2.26 µM	5.71 µM	2.46 µM	8.09 µM	2.9 µM	9.12 µM	2 µM	3.97 µM	1.8 µM	3.73 µM	2.08 µM	5.65 µM	3.83 µM	16.8 µM	1.82 µM	3.59 µM	3.03 µM	12.4 µM
Oc1ccc(CN2CCC(N3CCCCC3)CC2)c2cccnc12	19.3 µM	> 100 µM	11.5 µM	> 100 µM	36.1 µM	> 100 µM	6.64 µM	> 100 µM	5.75 µM	> 100 µM	11.7 µM	> 100 µM	68.3 µM	> 100 µM	2.85 µM	> 100 µM	17 µM	> 100 µM	27.6 µM	99.3 µM
COc1ccc(-c2cc(=O)c3ccc(O)cc3o2)cc1OC	–	> 100 µM	–	> 100 µM	–	> 100 µM	–	> 100 µM	–	> 100 µM	–	38.6 µM	–	> 100 µM	–	> 100 µM	–	> 100 µM	–	> 100 µM
CC[C@@]1(O)C(=O)OCc2c1cc1n(c2=O)Cc2c-1nc1cc3c(cc1c2CCl)OCO3	< 0.01 µM	0.238 µM	0.106 µM	3.99 µM	< 0.01 µM	–	< 0.01 µM	–	0.032 µM	0.403 µM	< 0.0138 µM	1.21 µM	< 0.01 µM	0.0252 µM	< 0.01 µM	2.08 µM	< 0.0136 µM	–	< 0.0446 µM	1.59 µM
CCN(CC)c1ccc(/C=C/c2ccc3cc(C)ccc3[n+]2CC)cc1	0.295 µM	6.46 µM	0.0314 µM	1.39 µM	0.299 µM	29.9 µM	0.0942 µM	12.7 µM	0.182 µM	1.63 µM	0.216 µM	3.41 µM	0.0658 µM	0.864 µM	0.161 µM	6.24 µM	0.229 µM	15.6 µM	0.116 µM	1.28 µM
CC(=O)OCCN1c2ccccc2Sc2cnccc21	–	> 10 µM	–	> 10 µM	–	> 10 µM	–	> 10 µM	–	> 10 µM	–	> 10 µM	–	> 10 µM	–	> 10 µM	–	> 10 µM	–	> 10 µM
CCCn1cnc2c(SCc3ccccc3Cl)nc(N)nc21	14.9 µM	31.6 µM	13.7 µM	44 µM	5.9 µM	47.3 µM	15.5 µM	45.6 µM	17.6 µM	61.9 µM	6.16 µM	24.8 µM	10.2 µM	30.4 µM	19.7 µM	86 µM	11.9 µM	> 100 µM	27.8 µM	93.8 µM
O=C(N/N=C/c1ccccc1O)c1ccccc1Nc1ccnc(C(F)(F)F)c1	0.46 µM	9.26 µM	0.527 µM	59 µM	0.123 µM	–	0.478 µM	> 48.7 µM	0.497 µM	3.76 µM	1.05 µM	> 40.3 µM	0.573 µM	27.6 µM	2.25 µM	52.2 µM	2.04 µM	> 100 µM	0.396 µM	–
O=C1Nc2c(C(F)(F)F)cccc2[C@]1(c1ccc(O)cc1)c1ccc(OC(F)(F)F)cc1	13.2 µM	28.1 µM	2.18 µM	8.43 µM	11.7 µM	49.9 µM	11.7 µM	23.9 µM	14.2 µM	29.2 µM	3.29 µM	15.5 µM	10 µM	22.1 µM	5.78 µM	19.5 µM	14.5 µM	32.2 µM	11.8 µM	24.9 µM
CC(=O)OC[C@]1(C)C=C2C(=O)[C@](C)(O)C3(CC3)C(C)=C2[C@H]1O	0.0411 µM	0.35 µM	0.148 µM	0.556 µM	0.206 µM	> 100 µM	0.036 µM	–	0.0899 µM	–	0.0612 µM	0.199 µM	0.131 µM	1.56 µM	0.152 µM	0.35 µM	0.044 µM	> 50 µM	0.28 µM	1.12 µM
Cn1c(=O)c2[nH]c(SCc3ccccn3)nc2n(C)c1=S	–	> 100 µM	–	> 100 µM	–	> 100 µM	–	> 100 µM	–	> 100 µM	–	> 100 µM	–	> 100 µM	–	45.2 µM	–	> 100 µM	–	> 100 µM
CC/C(=C(/c1ccc(O)cc1)c1ccc(OCCNC)cc1)c1ccccc1	1.64 µM	3.27 µM	3.37 µM	13.9 µM	2.39 µM	6.88 µM	2.63 µM	6.81 µM	1.69 µM	3.31 µM	1.68 µM	3.69 µM	1.95 µM	3.95 µM	1.43 µM	5.24 µM	1.72 µM	3.26 µM	1.64 µM	3.15 µM
COc1cc2c(c(O)c1Br)C(=O)c1c(O)cc(C[C@H](C)O)cc1[C@H]2[C@H]1c2cc(C[C@H](C)O)cc(O)c2C(=O)c2c1cc(OC)c(Br)c2O	23 µM and 14.1 µM	67.5 µM and > 100 µM	10.9 µM and 7.55 µM	63.5 µM and 45.2 µM	3.86 µM and 14.3 µM	67.5 µM and 92.9 µM	4.8 µM and 23.1 µM	67.5 µM and > 100 µM	11.4 µM and 20.9 µM	45.8 µM and > 100 µM	2.59 µM and 2.72 µM	22 µM and 9.33 µM	8 µM and 10.2 µM	21.5 µM and 22.4 µM	5.09 µM and 16 µM	56.5 µM and 67 µM	5.36 µM and 19.9 µM	67.5 µM and > 100 µM	11.2 µM and 19.1 µM	39.8 µM and 67.7 µM
Cn1c2ccccc2c2c(-c3ccccc3)[n+]3ccncc3nc21	> 100 µM	> 100 µM	29.6 µM	> 100 µM	89.4 µM	> 100 µM	> 100 µM	> 100 µM	> 100 µM	> 100 µM	> 100 µM	> 100 µM	> 100 µM	> 100 µM	> 100 µM	> 100 µM	> 100 µM	> 100 µM	59.5 µM	> 100 µM
C[C@]12CC[C@H]3[C@@H](CC=C4C[C@@H](O)CC[C@@]43C)[C@@H]1CC[C@@H]2N(CCO)CCO	–	42.7 µM	–	> 100 µM	–	> 100 µM	–	> 100 µM	–	> 100 µM	–	> 100 µM	–	> 100 µM	–	> 100 µM	–	> 100 µM	–	> 100 µM
C=C1C(=O)O[C@H]2[C@H]1CC/C(COC(=O)c1ccc3ccccc3c1)=C\CC[C@@]1(C)O[C@@H]21	1.18 µM	2.65 µM	0.57 µM	2.03 µM	0.28 µM	1.38 µM	0.945 µM	2.23 µM	1.13 µM	2.68 µM	0.286 µM	1.48 µM	1.54 µM	3.06 µM	1.44 µM	3.05 µM	0.356 µM	1.39 µM	1.39 µM	2.78 µM
COc1ccc(/C=C/c2nccc3ccccc23)cc1OC	–	> 10 µM	–	> 10 µM	–	> 10 µM	–	> 10 µM	–	> 10 µM	–	> 10 µM	–	> 10 µM	–	> 10 µM	–	> 10 µM	–	> 10 µM
CCOc1cc2c(Cl)ncnc2c(OCC)c1OCC	19 µM	36.8 µM	4.82 µM	14.5 µM	2.6 µM	6.85 µM	1.75 µM	3.14 µM	6.24 µM	20.1 µM	7.74 µM	22.1 µM	9.25 µM	29.2 µM	3.11 µM	15.9 µM	2.88 µM	9.24 µM	6.95 µM	22 µM
Oc1ccc(NCc2nc3ccccc3[nH]2)cc1	74.5 µM	> 100 µM	50.1 µM	> 100 µM	> 100 µM	> 100 µM	75.9 µM	> 100 µM	> 100 µM	> 100 µM	30.3 µM	> 100 µM	24.4 µM	97.2 µM	18 µM	62.5 µM	> 100 µM	> 100 µM	88 µM	> 100 µM
CN1CCN(C)C12C=c1ccccc1=CC21CC1	–	> 100 µM	–	> 100 µM	–	58.2 µM	–	> 100 µM	–	34.8 µM	–	> 92.6 µM	–	> 100 µM	–	> 93.1 µM	–	48.3 µM	–	48.2 µM
CC[CH2][Sn]([CH2]CC)([O]C(=O)c1cccnc1SC)[O][Sn]([CH2]CC)([CH2]CC)[O]C(=O)c1cccnc1SC	0.313 µM	0.675 µM	1.41 µM	2.71 µM	0.0691 µM	0.756 µM	2.37 µM	7.11 µM	0.513 µM	1.38 µM	0.0992 µM	0.342 µM	1.04 µM	3.04 µM	0.584 µM	1.97 µM	0.216 µM	0.503 µM	0.594 µM	1.72 µM
O=c1[nH]ncc(Br)c1Br	4.08 µM	14.1 µM	3.63 µM	12.2 µM	2.16 µM	5.35 µM	3.31 µM	15.3 µM	2.09 µM	4.23 µM	1.38 µM	2.71 µM	8.8 µM	22.5 µM	3.35 µM	16 µM	1.7 µM	3.07 µM	2 µM	4.84 µM
Oc1ccc2ccccc2c1N=Nc1nccs1	0.476 µM	> 41.7 µM	4.75 µM	32.3 µM	0.0932 µM	–	2.17 µM	16 µM	2.97 µM	18.3 µM	3.33 µM	> 59.2 µM	3.93 µM	> 57.4 µM	1.46 µM	24.7 µM	0.396 µM	19.5 µM	3.1 µM	16.4 µM
COc1ccc(-c2cc(=O)c3c(OC)c(OC)c(OC)cc3o2)cc1	–	> 100 µM	–	> 100 µM	–	74 µM	–	> 100 µM	–	> 100 µM	–	> 100 µM	–	96.9 µM	–	> 100 µM	–	> 100 µM	–	> 100 µM
